The results in this text go back to ChEMBL document CHEMBL2440082, “New non-symmetrical choline kinase inhibitors” (Bioorg Med Chem, 2013).

For data set [1], the system named is HepG2. Kind of data set: Antiproliferative activity against human HepG2 cells at 50 uM after 24 hrs by crystal violet-staining assay. The class given is functional.
The subject of data set [2] is HepG2. Kind of data set: Antiproliferative activity against human HepG2 cells at 10 uM after 24 hrs by crystal violet-staining assay. Type of data set: functional.
The subject of data set [3] is HepG2. Kind of data set: Antiproliferative activity against human HepG2 cells at 5 uM after 24 hrs by crystal violet-staining assay. Type of data set: functional.
The subject of data set [4] is HepG2. Description: Antiproliferative activity against human HepG2 cells at 1 uM after 24 hrs by crystal violet-staining assay. The class given is functional.
For data set [5], the species on record is Homo sapiens. Kind of data set: Inhibition of human ChoK activity assessed as inhibition of incorporation of [14C] from methyl[14C]choline into phosphocholine at 50 uM after 20 mins by scintillation counting.
Data set [6] is filed under the species Homo sapiens. Description: Inhibition of human ChoK activity assessed as inhibition of incorporation of [14C] from methyl[14C]choline into phosphocholine at 10 uM after 20 mins by scintillation counting.
Data set [7] has as its system HepG2. Kind of data set: Cytotoxicity against human HepG2 cells at 50 uM after 24 hrs by crystal violet-staining assay. The class given is cell-based. The note with it: hepg2, 24 h.
In data set [8] the test system is HepG2. Description: Cytotoxicity against human HepG2 cells at 10 uM after 24 hrs by crystal violet-staining assay. The class given is cell-based. Particulars: hepg2, 24 h.
Data set [9] in a line: Inhibition of human ChoK activity assessed as inhibition of incorporation of [14C] from methyl[14C]choline into phosphocholine after 20 mins by scintillation counting.

Each structure is given as a SMILES string. Calls of active or inactive are those of the source. No cut-off for these calls is given here.

For `CN(C)c1cc[n+](Cc2ccc(CNc3cccc(O)c3)cc2)cc1.[Br-]`, the Activity in data set [1] was 54.51%; in data set [2], 24.38%; in [3], 13.01%; in [4] it was 7.74%. Further, the inhibition (as a rule, the share of the control response that was lost under treatment) in [5] is 52.4%; in data set [6], 27.5%.

In data set [1], `CN(C)c1cc[n+](Cc2ccc(COc3cccc(N)c3)cc2)cc1.[Br-]` had an Activity of 22.48%. The outcome in data set [2], in data set [3] and in data set [4] was inactive. Further, the figures for the inhibition in data set [5] and in [6] were 37.7% and 14.8%, respectively.

As for `CN(C)c1cc[n+](Cc2ccc(CCc3ccc(COc4cccc(N)c4)cc3)cc2)cc1.[Br-]`, the Activity worked out at 59.54% in data set [1], 30.53% in [2], 6.98% in data set [3] and 7.42% in data set [4]. Also, the inhibition in data set [5] came to 21.9%. Besides, the inhibition entry in data set [6] was “inactive”.

In the case of `Nc1cccc(OCc2ccc(CCCCc3ccc(C[n+]4ccc(N5CCCC5)cc4)cc3)cc2)c1.[Br-]`, the Activity entry in data set [7] is given as “Toxic”; in data set [8] it was “Toxic”; in data set [3] it was 83.21%; in data set [4], 57.69%. In data set [5], the inhibition came out at 21.6%. In data set [6], the inhibition result is “inactive”.

`Oc1cccc(NCc2ccc(-c3ccc(C[n+]4ccc(N5CCCC5)cc4)cc3)cc2)c1.[Br-]`: the Activity entry in data set [7] was “Toxic”; in data set [8] it was “Toxic”; in data set [3], 52.99%; in data set [4] it was 48.52%. For the same molecule, in [5], the inhibition stood at 28.2%. Besides, the inhibition entry in [6] was “inactive”.

Consider `Oc1cccc(NCc2ccc(C[n+]3ccc(N4CCCC4)cc3)cc2)c1.[Br-]`, for which the Activity in [1] is on record as 8.53%; in data set [2], 9.54%; in [3], 13.43%; in data set [4], 2.91%. The inhibition in [5] amounted to 41.3%. The inhibition result in [6] was “inactive”.

Consider `CN(C)c1cc[n+](Cc2ccc(-c3ccc(COc4cccc(N)c4)cc3)cc2)cc1.[Br-]`, for which the IC50 – broadly, the concentration that inhibits the measured activity by half – in [9] was 6.37 µM. Further, the Activity result in data set [7] was “Toxic”; in data set [2] it was 24.4%; in data set [3] it was 16.23%; in data set [4] it was 8.5%. Further, the results for the inhibition in data set [5] and in [6] were 79.8% and 54.4%, respectively.

For the molecule `Oc1cccc(NCc2ccc(CCc3ccc(C[n+]4ccc(N5CCCC5)cc4)cc3)cc2)c1.[Br-]`, the Activity result in [7] is reported as “Toxic”; in data set [8], “Toxic”; in data set [3], 67.39%; in [4] it was 11.19%. Moreover, the inhibition in data set [5] came out at 13.6%. Also, the inhibition entry in data set [6] was “inactive”.

`CN(C)c1cc[n+](Cc2ccc(CCc3ccc(CNc4cccc(O)c4)cc3)cc2)cc1.[Br-]`: the Activity is 73.4% in data set [1], 34.1% in [2], 18.43% in [3] and 5.56% in [4]. The inhibition in [5] came to 39.5%. In data set [6], the inhibition entry is “inactive”.

As to `CN(C)c1cc[n+](Cc2ccc(CCCCc3ccc(CNc4cccc(O)c4)cc3)cc2)cc1.[Br-]`, the Activity came to 71.1% in data set [1], 30.86% in [2], 13.09% in data set [3] and 4.58% in data set [4]. For the same molecule, the inhibition in data set [5] is 12.9%; in [6] it was 3.8%.

On to `Oc1cccc(NCc2ccc(CCCCc3ccc(C[n+]4ccc(N5CCCC5)cc4)cc3)cc2)c1.[Br-]`, for which the Activity result is on record as “Toxic” in data set [7], “Toxic” in data set [8] and 48.96% in data set [3]. Further, the result in data set [4] was inactive. Moreover, the inhibition in data set [5] was 18%. Besides, the inhibition entry in data set [6] is “inactive”.

Take `CN(C)c1cc[n+](Cc2ccc(-c3ccc(CNc4cccc(O)c4)cc3)cc2)cc1.[Br-]`: the IC50 in data set [9] was 7.89 µM. The Activity in [1] is on record as 24.4%; in data set [2], 9.86%. In addition, the result in data set [3] and in [4] was inactive. The inhibition turned out to be 66.2% in [5] and 54.2% in data set [6].

As to `Nc1cccc(OCc2ccc(-c3ccc(C[n+]4ccc(N5CCCC5)cc4)cc3)cc2)c1.[Br-]`, the Activity entry in [7] is “Toxic”; in data set [8] it was “Toxic”; in data set [3] it was 57.24%; in data set [4] it was 40.52%. In addition, the inhibition in data set [5] worked out at 20.8%. Further, the inhibition entry in data set [6] is “inactive”.

For the molecule `CN(C)c1cc[n+](Cc2ccc(-c3ccc(Cn4cnc(N)c5ncnc4-5)cc3)cc2)cc1.[Br-]`, the Activity is on record as 7% in [1] and 10% in data set [2]. Moreover, the inhibition in [5] turned out to be 71.4%; in data set [6], 62.3%.

In the case of `CN(C)c1cc[n+](Cc2ccc(CCCCc3ccc(COc4cccc(N)c4)cc3)cc2)cc1.[Br-]`, the Activity was 46.67% in data set [1], 22.68% in data set [2], 18.32% in data set [3] and 10.14% in data set [4]. Also, the inhibition entry in [5] and in [6] was “inactive” each time.

Regarding `Nc1cccc(OCc2ccc(CCc3ccc(C[n+]4ccc(N5CCCC5)cc4)cc3)cc2)c1.[Br-]`, the Activity entry is “Toxic” in [7], “Toxic” in data set [8], 76.04% in data set [3] and 55.37% in [4]. The inhibition entry in data set [5] and in data set [6] was “inactive” in each case.

As for `CN(C)c1cc[n+](Cc2ccc(CCCCc3ccc(Cn4cnc5c(N)ncnc54)cc3)cc2)cc1.[Br-]`, the Activity was found to be 45.5% in [1] and 10.2% in [2]. Moreover, the values for the inhibition in data set [5] and in data set [6] were 89.7% and 66.7%, respectively.

On to `Nc1cccc(OCc2ccc(C[n+]3ccc(N4CCCC4)cc3)cc2)c1`, for which the result in [1], in data set [2], in [3] and in data set [4] was inactive. Further, the inhibition is 12.9% in data set [5] and 3.8% in [6].
